Results: the NIST ThermoML archive (doi:10.1016/j.fluid.2015.03.040)
Numbers after ± are expanded uncertainties.

Key:
[1] = 298.15 K; for surface tension liquid-gas: Maximal bubble pressure; for mass density: 101.33 kPa, Liquid, Vibrating tube method
[2] = refractive index (Na D-line) (dimensionless); settings: 298.15 K; 101.33 kPa; Liquid; Standard Abbe refractometry
[3] = 101 kPa, Liquid mixture 1, Drop volume

Structure (SMILES) | surface tension liquid-gas [1] [mN/m] | mass density [1] [kg/m3] | refractive index [2] | interfacial tension ([3]; 278.15 K) [mN/m] | interfacial tension ([3]; 288.15 K) [mN/m] | interfacial tension ([3]; 298.15 K) [mN/m] | interfacial tension ([3]; 308.15 K) [mN/m] | interfacial tension ([3]; 318.15 K) [mN/m] | interfacial tension ([3]; 328.15 K) [mN/m] | interfacial tension ([3]; 338.15 K) [mN/m] | interfacial tension ([3]; 348.15 K) [mN/m] | interfacial tension ([3]; 358.15 K) [mN/m]
CCOC(C)(C)C [2-ethoxy-2-methylpropane] | 19.73 ± 0.17 | 736.65 ± 0.14 | 1.37468 ± 0.00031 |  |  |  |  |  |  |  |  | 
CCOC(C)(C)C [2-ethoxy-2-methylpropane] + O |  |  |  | 14 ± 0.11 | 15.5 ± 0.12 | 16.6 ± 0.12 | 17.8 ± 0.13 | 18.7 ± 0.13 | 19.3 ± 0.14 |  |  | 
CCC(C)(C)OC [2-methoxy-2-methylbutane] | 20.3 ± 0.17 | 765.91 ± 0.14 | 1.38736 ± 0.00032 |  |  |  |  |  |  |  |  | 
CCC(C)(C)OC [2-methoxy-2-methylbutane] + O |  |  |  | 12.2 ± 0.1 | 13.2 ± 0.11 | 14.5 ± 0.11 | 15.5 ± 0.12 | 16.3 ± 0.12 | 17 ± 0.13 | 17.5 ± 0.13 |  | 
COC(C)(C)C [2-methoxy-2-methylpropane] | 17.5 ± 0.16 | 735.31 ± 0.14 | 1.36764 ± 0.00031 |  |  |  |  |  |  |  |  | 
COC(C)(C)C [2-methoxy-2-methylpropane] + O |  |  |  | 7.8 ± 0.08 | 8.83 ± 0.09 | 9.8 ± 0.09 | 10.8 ± 0.1 | 11.7 ± 0.1 |  |  |  | 
CCCCO [butan-1-ol] + O |  |  |  | 1.49 ± 0.05 | 1.63 ± 0.05 | 1.68 ± 0.05 | 1.69 ± 0.05 | 1.63 ± 0.05 | 1.54 ± 0.05 | 1.39 ± 0.05 | 1.2 ± 0.05 | 1.04 ± 0.05
CC(C)OC(C)C [diisopropyl ether] | 16.9 ± 0.16 | 718.89 ± 0.15 | 1.3665 ± 0.00031 |  |  |  |  |  |  |  |  | 
CC(C)OC(C)C [diisopropyl ether] + O |  |  |  | 15.2 ± 0.12 | 16.3 ± 0.12 | 17.7 ± 0.13 | 18.7 ± 0.13 | 19.7 ± 0.14 | 21.1 ± 0.15 |  |  | 
CCCCCCCO [heptan-1-ol] | 27.4 ± 0.21 | 818.93 ± 0.11 | 1.42384 ± 0.00031 |  |  |  |  |  |  |  |  | 
CCCCCCCO [heptan-1-ol] + O |  |  |  | 6.61 ± 0.08 | 7.09 ± 0.08 | 7.4 ± 0.08 | 7.56 ± 0.08 | 7.73 ± 0.08 | 7.96 ± 0.08 | 7.9 ± 0.08 | 7.82 ± 0.08 | 7.74 ± 0.08

The next lines start with the values.

surface tension liquid-gas [1] [mN/m] | mass density [1] [kg/m3] | refractive index [2] | interfacial tension ([3]; 278.15 K) [mN/m] | interfacial tension ([3]; 288.15 K) [mN/m] | interfacial tension ([3]; 298.15 K) [mN/m] | interfacial tension ([3]; 308.15 K) [mN/m] | interfacial tension ([3]; 318.15 K) [mN/m] | interfacial tension ([3]; 328.15 K) [mN/m] | interfacial tension ([3]; 338.15 K) [mN/m] | interfacial tension ([3]; 348.15 K) [mN/m] | interfacial tension ([3]; 358.15 K) [mN/m] | Structure (SMILES)
 |  |  | 5.77 ± 0.07 | 6.06 ± 0.07 | 6.29 ± 0.08 | 6.16 ± 0.08 | 6.18 ± 0.08 | 6.29 ± 0.08 | 6.14 ± 0.08 | 6 ± 0.07 |  | CCCCCCO [hexan-1-ol] + O
28 ± 0.2 | 822.25 ± 0.11 | 1.42884 ± 0.00031 |  |  |  |  |  |  |  |  |  | CCCCCCCCO [octan-1-ol]
 |  |  | 6.99 ± 0.08 | 7.53 ± 0.08 | 7.97 ± 0.08 | 8.41 ± 0.09 | 8.62 ± 0.09 | 8.67 ± 0.09 | 8.81 ± 0.09 |  |  | CCCCCCCCO [octan-1-ol] + O
24.7 ± 0.2 | 810.89 ± 0.12 | 1.40941 ± 0.00032 |  |  |  |  |  |  |  |  |  | CCCCCO [pentan-1-ol]
 |  |  | 3.96 ± 0.07 | 4.24 ± 0.07 | 4.35 ± 0.07 | 4.5 ± 0.07 | 4.51 ± 0.07 | 4.43 ± 0.07 | 4.37 ± 0.07 | 4.21 ± 0.07 | 3.94 ± 0.07 | CCCCCO [pentan-1-ol] + O
28 ± 0.21 | 879.44 ± 0.09 | 1.42004 ± 0.00031 |  |  |  |  |  |  |  |  |  | C1CCOCC1 [tetrahydropyran]
 |  |  | 4.64 ± 0.07 | 5.19 ± 0.07 | 5.78 ± 0.07 | 6.35 ± 0.08 | 6.75 ± 0.08 | 7.28 ± 0.08 | 7.45 ± 0.08 |  |  | C1CCOCC1 [tetrahydropyran] + O
71.94 ± 0.41 | 996.7 ± 0.04 | 1.33374 ± 0.00031 |  |  |  |  |  |  |  |  |  | O [water]
